# Starred links: 1 amine or outer side, 2 acyl side, 3 side chain; linkers in the order of their positions; H or OH if unused. Positions of bridges follow the written chain, without caps; N, C: chain ends. Non-standard residues stand in square brackets, D forms with d. Residues, ends and D or L forms follow the SMILES beside them. Chains are numbered I, II in the order given. Actinocin(9to1) = Cc1c2oc3c(C)ccc(C(=O)[*:1])c3nc-2c(C(=O)[*:2])c(N)c1=O; NMeV = CN[C@H](C(=O)O)C(C)C; Sar = CNCC(=O)O
# Columns and labels:
# [1] = test system: cancer cell lines originating from other tissues; assay: 6-day cell survival assay, cancer cell lines originating from other tissues (summary); assay type: cell-based; details: lung, liver, breast, pancreas lines
# Experimental: Cell survival assays (FIGS. 12-19) were performed in 96-well plates in technical duplicates. Treatments started 24 hours post cell plating and lasted for 6-days prior to cell viability assessment with the Cell Titer Glo 2.0 Luminescent assay (Promega, G9242).
# [2] = test system: mouse ESCs; assay: Cell survival of artemisinin treated mouse embryonic stem cells (Alamar Blue, 48 h); assay type: cell-based; details: artemisinin combined with acifluorfen or 5-ALA (0.5 mM)
# Experimental: For dosage responses, cells were seeded in 96-wells (25.000/ 96-well, in triplicate -where indicated) and subjected to compounds for 48 h. Cell viability was assessed using automated cell counting (high-throughput flow cytometry), Alamar Blue staining (Invitrogen, DAL1100) or CellTiter-Glo Luminescent Assay (Promega, G7570, according to the manufacturer’s protocol) respectively.
# [3] = test system: human glioblastoma-like neoplastic organoid model; assay: Compound profiling in human glioblastoma-like neoplastic organoid model (p53, NF1, PTEN mutated); assay type: cell-based; details: compound alone
# Experimental: Tumor initiation was induced by either oncogene amplification, using a Sleeping Beauty (SB) transposase, or mutation of tumor suppressor genes, using the CRISPR-Cas9 system in day 10 old embryoid bodies (EBs). Plasmids carrying the transposase as well as GFP and the desired oncogenes or expressing Cas9 nuclease were introduced by electroporation. In brief, a mixture of 1 μg DNA and 100 μl nucleofector solution was added to 10 EBs and transferred to a nucleofection cuvette. The Lonza Nucleofector 2b and the A-023 program were used for electroporation/ nucleofection. […] Cerebral tumor organoids were treated with different compounds and the survival and growth of transformed as well as untransformed neurons was monitored. Fluorescence labeling of tumor cells allowed clear distinguishability of transformed cells as compared to non-labeled throughout the experiment using brightfield microscopy, as well as fluorescence imaging. The transformed tumor tissue and untransformed neurons within the same organoid was monitored using fluorescence imaging, as well as brightfield microscopy throughout the experiment. At the endpoint of the treatment (d5 or d7 respectively), the number of GFP-positive cells was assessed by flow cytometry. […] Brightfield and green fluorescence images were taken from the same area. […]
# [4] = test system: colorectal cancer (CRC) cells; details: reported in literature; cited from earlier work
# [5] = test system: neuroblastoma cells (SHSY5Y), Jurkat and HL-60 cells; assay: ROS levels by Dihydroethidium (DHE) staining and flow cytometry in cell lines; assay type: cell-based; details: artemisinin alone; Jurkat and HL-60 cells, 48 h
# Experimental: Treated cells were collected, washed with 1x HBSS (without Ca2+ and Mg2+), incubated with 1mM DHE (Dihydroethidium (Hydroethidine), Invitrogen, D11347) in 1x HBSS for 45 min at 37° C., washed twice and counterstained with DAPI or a viability dye (eBioscience™ Fixable Viability Dye eFluor™ 780, 65-0865-18) for 10 min on ice. Cells were then collected, strained and analysed using flow cytometry for DHE in the red fluorescent spectrum (PE channel).
# [6] = test system: human cerebral tumor organoids (CNS-PNET); assay: Compound profiling in CNS-PNET cerebral tumor organoids (GFP-positive tumor cells); assay type: cell-based; details: very high concentrations, compound alone
# Experimental: Tumor initiation was induced by either oncogene amplification, using a Sleeping Beauty (SB) transposase, or mutation of tumor suppressor genes, using the CRISPR-Cas9 system in day 10 old embryoid bodies (EBs). Plasmids carrying the transposase as well as GFP and the desired oncogenes or expressing Cas9 nuclease were introduced by electroporation. In brief, a mixture of 1 μg DNA and 100 μl nucleofector solution was added to 10 EBs and transferred to a nucleofection cuvette. The Lonza Nucleofector 2b and the A-023 program were used for electroporation/ nucleofection. Thereafter, EBs were transferred into 10 cm dishes containing differentiation media containing vitamin A and embedded into Matrigel 24 hours later. Two different types of tumors were initiated {Bian:2018gs}: Central nervous system primitive neuroectodermal tumors (CNS-PNET) were induced by the overexpression of Myc. Glioblastoma-like tumor group 2 (GBM-2) was caused by mutagenesis of the tumor suppressor genes p53, NF1 and PTEN. All plasmids were designed by Shan Bian {Bian, S. et al. Genetically engineered cerebral organoids model brain tumor formation. Nat. Methods 15, 631-639 (2018)}. Cerebral tumor organoids were treated with different compounds and the survival and growth of transformed as well as untransformed neurons was monitored. Fluorescence labeling of tumor cells allowed clear distinguishability of transformed cells as compared to non-labeled throughout the experiment using brightfield microscopy, as well as fluorescence imaging. The transformed tumor tissue and untransformed neurons within the same organoid was monitored using fluorescence imaging, as well as brightfield microscopy throughout the experiment. At the endpoint of the treatment (d5 or d7 respectively), the number of GFP-positive cells was assessed by flow cytometry. Cerebral (tumor) organoids were enzymatically and mechanically dissociated using 1x trypsin, 35-45 min incubation at 37° C., and gentle shaking. […] Single cells in suspension were counterstained with DAPI or a viability dye (eBioscienceTM Fixable Viability Dye eFluorTM 780, 65-0865-18), and analysed using flow cytometry (BD LSRFortessa HTS Cell Analyzer). The amounts of GFP-positive cells were analyzed. […] Brightfield and green fluorescence images were taken from the same area. Additionally, for image analyses, the Celldiscoverer 7 (Zeiss), a fully integrated high-end automated live cell imaging system, was used. Cerebral organoids were fixed in 4% PFA (room temperature, 1 h), incubated with 30% sucrose (4° C., o/n), OCT (Tissue-tek OCT Compound, […], 4583) embedded and 20 μm sections were cryostat cut (-12/-14° C.). […] Fluorescence Mounting Medium (Dako, S302380) was used for mounting the sample slides. […]
# [7] = test system: mouse ESCs; assay: Competitive growth assay of wild-type and knockout sister ESC clones in presence of artemisinin; assay type: cell-based; details: mixed labelled cells, artemisinin exposure, flow cytometry
# Experimental: Haploid ESCs harbouring gene traps in nomic introns were seeded at low density in normal ESC growth medium and infected for 12 h with two viruses, one encoding mCherry plus Cre recombinase and the other coding for GFP, both together with puromycin (Invivogen, ant-pr-1). Infected cells were selected (final concentration of puromycin, 1 µg/ml) after 24 h and expanded. Ratios of GFP- to mCherry/Cre-expressing cells in the presence and absence of artemisinin were determined using high-throughput flow cytometry (BD LSRFortessa HTS Cell Analyzer).
Compound,effect of the chemotherapeutic agent when combined with the double combination ART/DHA/ARS with 5-ALA [1],other results
O=c1[nH]cc(F)c(=O)[nH]1 [5-fluorouracil],enhances,–
O=C(O)c1cc(Oc2ccc(C(F)(F)F)cc2Cl)ccc1[N+](=O)[O-] [acifluorfen],–,susceptibility to artemisinin (cell survival) [2]: increased resistance to artemisinin
C[C@@H]1CC[C@H]2[C@@H](C)C(=O)O[C@@H]3O[C@@]4(C)CC[C@@H]1[C@]32OO4 [artemisinin],–,survival of untransformed and transformed cells [3]: little effect on the survival of untransformed cells as well as transformed cells; cytotoxicity [4]: specific cytotoxicity; ROS levels (DHE) [5]: increased levels of ROS; growth of GFP-positive tumor organoids [6]: notable growth inhibition; relative growth of wild-type (mCherry_Cre) and knockout (GFP) sister cell clones [7]: selective loss of wild-type (mCherry_Cre) and strong expansion of knockout cells (GFP)
N.N.O=C([O-])C1(C(=O)[O-])CCC1.[Pt+2] [carboplatin],enhances,–
N.N.[Cl][Pt][Cl] [cisplatin],enhances,–
"Cc1c2oc3c(C)ccc(C(=O)N[C@@H]4C(=O)N[C@H](C(C)C)C(=O)N5CCC[C@H]5C(=O)N(C)CC(=O)N(C)[C@@H](C(C)C)C(=O)O[C@@H]4C)c3nc-2c(C(=O)N[C@@H]2C(=O)N[C@H](C(C)C)C(=O)N3CCC[C@H]3C(=O)N(C)CC(=O)N(C)[C@@H](C(C)C)C(=O)O[C@@H]2C)c(N)c1=O [dactinomycin] (I: T[dV]P[Sar][NMeV] / II: T[dV]P[Sar][NMeV]; ester I:1-I:C, II:1-II:C; linker I:N-II:N via Actinocin(9to1))",enhances,–
COc1cccc2c1C(=O)c1c(O)c3c(c(O)c1C2=O)C[C@@](O)(C(=O)CO)C[C@@H]3O[C@H]1C[C@H](N)[C@H](O)[C@H](C)O1 [doxorubicin],enhances,–
COc1cccc2c1C(=O)c1c(O)c3c(c(O)c1C2=O)C[C@@](O)(C(=O)CO)C[C@@H]3O[C@H]1C[C@H](N)[C@@H](O)[C@H](C)O1 [epirubicin],enhances,–
COC(=O)C[C@](O)(CCCC(C)(C)O)C(=O)O[C@@H]1C(OC)=C[C@]23CCCN2CCc2cc4c(cc2[C@H]13)OCO4 [homoharringtonin],enhances,–
O=NN(CCCl)C(=O)NC1CCCCC1 [lomustine],enhances,–
CC(C)[C@]12O[C@H]1[C@@H]1O[C@]13[C@]1(O[C@H]1C[C@H]1C4=C(CC[C@@]13C)C(=O)OC4)[C@@H]2O [triptolide],enhances,–
vinorebine,enhances,–
